Data set [1] can be described thus: Free energy of hydration predicted with the QM-parameterized force field model (ARROW FF), classical MD and PIMD simulation in a water box. The conditions noted are these: for water Arrow MD Error / water Arrow PIMD8 Error: Table 3; for water Arrow MD Error: absolute error of MD hydration free energy vs experiment; for water Arrow PIMD8 Error: absolute error of PIMD8 hydration free energy vs experiment; for Arrow PIMD8 Error: absolute error vs Exp (hydration). A digest of the protocol:
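Classical and PIMD runs (MTS integrator, MTTK barostat at 1 atm) followed minimization and 50 ps equilibration, with 1 ns NPT production per window. Fifteen unequally spaced lambda windows removed all solute-solvent interactions simultaneously in a 32 Å water box. Hydration free energy computed by Bennett acceptance ratio and thermodynamic integration.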

Data set [2] can be described thus: Free energy of hydration by COSMO implicit solvent model (MolPro ver. 2012). The conditions noted are these: absolute error vs Exp (hydration). The essentials:
(§1)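 Implicit-solvent predictions of hydration free energy. MolPro supplied the COSMO solvation energies across the dataset. Predicted SMD and PCM values were received rather than computed here. Coverage for SMD, PCM and COSMO-RS matches the QM-parameterized force-field subset.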

Data set [3] in a line: Free energy of hydration by Solvation Model Dielectric (SMD) implicit solvent model. The conditions noted are these: absolute error vs Exp (hydration). A digest of the protocol:
as §1

Data set [4] in a line: Free energy of hydration by Polarizable Continuum Model (PCM). The conditions noted are these: absolute error vs Exp (hydration). A digest of the protocol: as §1
Data set [5] in a line: Free energy of hydration by COSMO-RS. A digest of the protocol:
as §1

A short description of data set [6]: Free energy of hydration by Free Energy Machine Learning Model (FML). The conditions noted are these: absolute error vs Exp (hydration). From the text:
Machine learning models can be used for free energy determination.

For data set [7] the following is noted: Table 3; free energy of hydration, experimental; cited from earlier work.
The conditions of data set [8]: implicit solvent model, values received; cited from earlier work.
For data set [9] the following is noted: implicit solvent model, values received; cited from earlier work. The source holds these as a separate data set.
Data set [10] is described as follows: CHEX/H2O partition coefficient (log D) predicted with the QM-parameterized force field model (ARROW FF). A digest of the protocol: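 Cyclohexane/water partition coefficients were predicted by molecular simulation with a QM-parameterized force field, with bonded force constants and equilibrium values fitted to MP2/aug-cc-pVTZ energies. Solutes carried neutral functional groups, and results from four independent groups were averaged.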

The conditions of data set [11]: Table 3; free energy of solvation in cyclohexane, experimental; cited from earlier work.
For data set [12] the following is noted: Table 3; CHEX/H2O partition coefficient, experimental; cited from earlier work.
Where [13] appears, read: Table 3, absolute error of MD log D vs experiment.
The mark [14] stands for this setting: Table 3, absolute error of PIMD log D vs experiment.

SMILES strings stand for the structures. Like-named read-outs stand apart in the source and are kept apart here.

As to `CCCCCO` [1-Pentanol], in data set [1], the “water Arrow MD Error” value was 1.18 kcal/mol, the “water Arrow PIMD8 Error” value is 0.05 kcal/mol and the “Arrow PIMD8 Error” value is 0.05 kcal/mol. In addition, in data set [2], the “COSMO/Molpro Error” value amounted to 2.21 kcal/mol. The “SMD Error” value in data set [3] is reported as 0.47 kcal/mol. Moreover, in data set [4], the “PCM Error” value is reported as 1.17 kcal/mol. This compound also returned a COSMO-RS error in data set [5] of 0.11 kcal/mol. In data set [6], the FML error was determined as 0.30 kcal/mol. Further, in data set [7], the “water Exp (hydration)” value was -4.47 kcal/mol. Further, the “SMD free energy of hydration” value in data set [8] is -4.00 kcal/mol. In addition, the “PCM free energy of hydration” value in data set [9] is -3.30 kcal/mol.
Consider `CCC(C)O` (stereo not drawn) [2-Butanol], for which, in data set [1], the “water Arrow MD Error” value is 1.41 kcal/mol, the “water Arrow PIMD8 Error” value was 0.08 kcal/mol and the “Arrow PIMD8 Error” value is recorded as 0.08 kcal/mol. In addition, the “COSMO/Molpro Error” value in [2] came out at 1.11 kcal/mol. The COSMO-RS error in [5] is given as 0.77 kcal/mol. In [6], this compound came in with an FML error of 0.61 kcal/mol. Besides, the “water Exp (hydration)” value in data set [7] is -4.58 kcal/mol.
For `CCCC(C)O` (stereo not drawn) [2-Pentanol], in data set [1], the “water Arrow MD Error” value was 1.68 kcal/mol, the “water Arrow PIMD8 Error” value was 0.08 kcal/mol and the “Arrow PIMD8 Error” value is 0.08 kcal/mol. In addition, the “COSMO/Molpro Error” value in data set [2] is listed as 1.38 kcal/mol. In data set [6], the FML error is 0.40 kcal/mol. The “water Exp (hydration)” value in [7] is -4.39 kcal/mol.
With `CCC(O)CC` [3-Pentanol], in data set [1], the “water Arrow MD Error” value is 1.36 kcal/mol, the “water Arrow PIMD8 Error” value is 0.15 kcal/mol and the “Arrow PIMD8 Error” value is reported as 0.15 kcal/mol. For the same compound, in data set [2], the “COSMO/Molpro Error” value is 1.01 kcal/mol. In data set [6], this compound yielded an FML error of 0.58 kcal/mol. In data set [7], the “water Exp (hydration)” value was -4.35 kcal/mol.
Regarding `CCCCOC(C)=O` [ButylAcetate], in data set [1], the “water Arrow MD Error” value is 0.85 kcal/mol, the “water Arrow PIMD8 Error” value is 0.07 kcal/mol and the “Arrow PIMD8 Error” value is given as 0.07 kcal/mol. Further, in data set [10] (setting [13]), the “log D Arrow MD Error” value is reported as 0.60. Further, in data set [10] (setting [14]), the “log D Arrow PIMD Error” value is 0.06. The “COSMO/Molpro Error” value in [2] was 4.19 kcal/mol. Besides, in data set [3], the “SMD Error” value is 0.35 kcal/mol. Moreover, in data set [4], the “PCM Error” value is 1.25 kcal/mol. Moreover, the FML error in [6] amounted to 0.61 kcal/mol. Also, in [7], the “water Exp (hydration)” value was -2.55 kcal/mol. Also, the “CHEX Exp (solvation)” value in [11] is -4.94 kcal/mol. In addition, the “SMD free energy of hydration” value in [8] was -2.90 kcal/mol. For the same compound, the “PCM free energy of hydration” value in data set [9] was -3.80 kcal/mol. Further, the “Exp (log D)” value in data set [12] was 1.75.
With `C1CC1` [Cyclopropane], in data set [1], the “water Arrow MD Error” value was 0.30 kcal/mol, the “water Arrow PIMD8 Error” value is 0.29 kcal/mol and the “Arrow PIMD8 Error” value was 0.29 kcal/mol. The “COSMO/Molpro Error” value in [2] is given as 2.05 kcal/mol. In [3], the “SMD Error” value stood at 0.65 kcal/mol. For the same compound, the “PCM Error” value in data set [4] is on record as 1.35 kcal/mol. In data set [5], this compound showed a COSMO-RS error of 0.40 kcal/mol. This compound yielded an FML error in [6] of 0.76 kcal/mol. Besides, the “water Exp (hydration)” value in [7] is 0.75 kcal/mol. Also, the “SMD free energy of hydration” value in data set [8] is 0.10 kcal/mol. The “PCM free energy of hydration” value in [9] is -0.60 kcal/mol.
For the compound `C1CCCC1` [Cyctopentane], the “Arrow PIMD8 Error” value in data set [1] is 0.12 kcal/mol. In data set [3], the “SMD Error” value worked out at 0.10 kcal/mol. Further, the “PCM Error” value in [4] is given as 1.40 kcal/mol. Besides, in data set [5], the COSMO-RS error came out at 0.17 kcal/mol. Moreover, the FML error in data set [6] is reported as 0.32 kcal/mol. Also, the “SMD free energy of hydration” value in [8] is given as 1.30 kcal/mol. The “PCM free energy of hydration” value in [9] was -0.20 kcal/mol.
On to `CCOC(C)=O` [EthylAcetate], for which, in data set [1], the “water Arrow MD Error” value is 0.28 kcal/mol, the “water Arrow PIMD8 Error” value was 0.32 kcal/mol and the “Arrow PIMD8 Error” value is given as 0.32 kcal/mol. For the same compound, in [10], the “log D Arrow MD Error” value was 0.46 and the “log D Arrow PIMD Error” value is 0.13. Besides, the “COSMO/Molpro Error” value in data set [2] stood at 3.95 kcal/mol. For the same compound, the “SMD Error” value in data set [3] is reported as 0.02 kcal/mol. For the same compound, in data set [4], the “PCM Error” value worked out at 0.58 kcal/mol. Also, in data set [6], the FML error turned out to be 0.02 kcal/mol. Moreover, the “water Exp (hydration)” value in data set [7] is -3.12 kcal/mol. For the same compound, in data set [11], the “CHEX Exp (solvation)” value is -3.55 kcal/mol. The “SMD free energy of hydration” value in [8] was -3.10 kcal/mol. Also, the “PCM free energy of hydration” value in data set [9] was -3.70 kcal/mol. The “Exp (log D)” value in data set [12] is reported as 0.32.
As for `CCC(=O)OC` [MethylPropionate], in data set [1], the “water Arrow MD Error” value was 0.62 kcal/mol, the “water Arrow PIMD8 Error” value is 0.10 kcal/mol and the “Arrow PIMD8 Error” value was 0.10 kcal/mol. For the same compound, the “log D Arrow MD Error” value in data set [10] (setting [13]) is given as 0.84. Moreover, in data set [10] (setting [14]), the “log D Arrow PIMD Error” value is on record as 0.45. Also, the “COSMO/Molpro Error” value in data set [2] is listed as 3.75 kcal/mol. Further, the “SMD Error” value in data set [3] is 0.23 kcal/mol. Besides, the “PCM Error” value in data set [4] turned out to be 0.57 kcal/mol. The compound also had an FML error in data set [6] of 0.20 kcal/mol. For the same compound, in data set [7], the “water Exp (hydration)” value was -2.93 kcal/mol. The “CHEX Exp (solvation)” value in data set [11] is -3.71 kcal/mol. Besides, the “SMD free energy of hydration” value in data set [8] was -2.70 kcal/mol. Besides, the “PCM free energy of hydration” value in data set [9] is -3.50 kcal/mol. The “Exp (log D)” value in [12] is listed as 0.57.
As to `CCCOC(C)=O` [PropylAcetate], in data set [1], the “water Arrow MD Error” value was 0.64 kcal/mol, the “water Arrow PIMD8 Error” value was 0.07 kcal/mol and the “Arrow PIMD8 Error” value is 0.07 kcal/mol. In [10], the “log D Arrow MD Error” value is recorded as 0.65 and the “log D Arrow PIMD Error” value is 0.37. Besides, the “COSMO/Molpro Error” value in data set [2] amounted to 4.12 kcal/mol. The “SMD Error” value in data set [3] is recorded as 0.14 kcal/mol. For the same compound, in [4], the “PCM Error” value is reported as 0.94 kcal/mol. The compound also gave an FML error in [6] of 0.24 kcal/mol. For the same compound, the “water Exp (hydration)” value in data set [7] is -2.86 kcal/mol. Further, in data set [11], the “CHEX Exp (solvation)” value was -4.36 kcal/mol. Further, in data set [8], the “SMD free energy of hydration” value was -3.00 kcal/mol. Besides, the “PCM free energy of hydration” value in data set [9] was -3.80 kcal/mol. For the same compound, in data set [12], the “Exp (log D)” value is 1.10.
Turning to `CC=O` [acetaldehyde], in [1], the “water Arrow MD Error” value is 0.18 kcal/mol, the “water Arrow PIMD8 Error” value is 0.27 kcal/mol and the “Arrow PIMD8 Error” value is on record as 0.27 kcal/mol. Moreover, the “COSMO/Molpro Error” value in [2] was determined as 3.97 kcal/mol. In [3], the “SMD Error” value came out at 0.30 kcal/mol. In addition, in data set [4], the “PCM Error” value is 0.20 kcal/mol. Also, the COSMO-RS error in data set [5] was determined as 0.18 kcal/mol. Also, the FML error in data set [6] is recorded as 0.03 kcal/mol.
Regarding `Cc1cccc(O)c1` [m-cresol], in [1], the “water Arrow MD Error” value is 2.12 kcal/mol, the “water Arrow PIMD8 Error” value is 1.03 kcal/mol and the “Arrow PIMD8 Error” value is 1.03 kcal/mol. Further, the “log D Arrow MD Error” value in data set [10] (setting [13]) is given as 0.65. In addition, the “log D Arrow PIMD Error” value in [10] (setting [14]) is 0.09. In addition, the “COSMO/Molpro Error” value in [2] was 3.97 kcal/mol. Further, the “SMD Error” value in data set [3] was found to be 0.69 kcal/mol. In addition, the “PCM Error” value in data set [4] was 1.49 kcal/mol. This compound also came in with an FML error in data set [6] of 0.72 kcal/mol. Further, the “water Exp (hydration)” value in data set [7] was -5.49 kcal/mol. Further, the “CHEX Exp (solvation)” value in data set [11] is -5.20 kcal/mol. In [8], the “SMD free energy of hydration” value was -4.80 kcal/mol. The “PCM free energy of hydration” value in data set [9] was -4.00 kcal/mol. Besides, the “Exp (log D)” value in [12] was −0.21.
Turning to `Cc1ccccc1O` [o-cresol], in data set [1], the “water Arrow MD Error” value is 1.27 kcal/mol, the “water Arrow PIMD8 Error” value is 0.28 kcal/mol and the “Arrow PIMD8 Error” value was 0.28 kcal/mol. Besides, in data set [1] (predicted vs experimental free energy of hydration), the hydration error was -1 kcal/mol. Further, the “log D Arrow MD Error” value in data set [10] (setting [13]) is on record as 0.67. Moreover, the “log D Arrow PIMD Error” value in data set [10] (setting [14]) is 0.14. The “COSMO/Molpro Error” value in data set [2] was 1.21 kcal/mol. Moreover, in data set [3], the “SMD Error” value was found to be 1.27 kcal/mol. Further, the “PCM Error” value in data set [4] is listed as 2.17 kcal/mol. Moreover, the FML error in data set [6] is recorded as 0.19 kcal/mol. The “water Exp (hydration)” value in [7] is -5.87 kcal/mol. For the same compound, the “CHEX Exp (solvation)” value in data set [11] was -6.02 kcal/mol. Also, the “SMD free energy of hydration” value in [8] was -4.60 kcal/mol. In addition, the “PCM free energy of hydration” value in data set [9] is -3.70 kcal/mol. Besides, the “Exp (log D)” value in [12] is reported as 0.11.
